The test system of series [1] is Dengue virus type 1. Kind of series: Dengue virus type 1 IFA assay (E protein) in Vero E6 cells. The format is cell-based. Conditions: MOI 0.002, 5 days at 33° C, read-out: DV1 EC50. The protocol: (§1) Compounds 1-9 were evaluated for their inhibitory activities against Dengue virus, another single positive-stranded RNA virus belonging to genus of flavivirus, using an IFA assay that targeted the Dengue virus Envelope (“E”) protein.
(§2) Vero E6 cells (BCRC #60476, Bioresource Collection and Research Center, Hsinchu, Taiwan) were treated with one of Compounds 1-9 at a predetermined concentration for 1 hour at 37° C. The cells were infected with Dengue virus type 1 (“DV1”, ATCC VR-1856, American Type Culture Collection, Manassas, VA, USA) at MOI=0.002 or Dengue virus type 2 (“DV2”, ATCC VR-1584, American Type Culture Collection, Manassas, VA, USA) at MOI=0.02, both for 5 days at 33° C. They were then fixed with 10% formalin and permeabilized with methanol. Subsequently, the cells were stained with anti-flavivirus E antibody (ATCC HB-112, American Type Culture Collection, Manassas, VA, USA) and anti-mouse IgG-FITC (MP Biomedicals, Irvine, CA, USA). The nuclei of the cells were counter stained with DAPI (Thermo Fisher Scientific, MA, USA). The E protein expression was measured by using a high-content image analysis system (Molecular Devices). The cell viability was determined by MTS. EC50 and CC50 were calculated by Prism software.

For series [2], the system named is Zika virus. Kind of series: Zika virus IFA assay (E protein) in Vero E6 cells. Type of series: cell-based. Particulars: read-out: EC50 (Zika virus). The protocol: Compounds 1-9 were evaluated for their inhibitory activities against Zika virus using an IFA assay, which targeted Zika virus Envelope (“E”) protein.
(§3) Vero E6 cells (BCRC #60476, Bioresource Collection and Research Center, Hsinchu, Taiwan) were treated with one of Compounds 1-9 at a predetermined concentration for 1 hour at 37° C. The cells were adsorbed with Zika virus (ATCC VR-1843, American Type Culture Collection, Manassas, VA, USA) at MOI=0.02 for 49 hours at 37° C. The cells were fixed with 10% formalin, permeabilized with methanol. The cells were stained with anti-flavivirus E antibody (ATCC HB-112, American Type Culture Collection, Manassas, VA, USA) and anti-mouse IgG-FITC (MP Biomedicals, Irvine, CA, USA). The nuclei were counter stained with DAPI (in blue) (Thermo Fisher Scientific, MA, USA). The E protein expression was measured using a high-content image analysis system (Molecular Devices). The cell viability was determined by MTS. Both EC50 and CC50 were calculated by Prism software.

Series [3] is described as follows: Vero E6 cell viability by MTS (Dengue study). Type of series: cell-based. Particulars: African green monkey, Vero E6 cells. The procedure: as §2
The test system of series [4] is Dengue virus type 2. Kind of series: Dengue virus type 2 IFA assay (E protein) in Vero E6 cells. Particulars: MOI 0.02, 5 days at 33° C, read-out: DV2 EC50. Type of series: cell-based. The procedure:
as §1, §2

Series [5] in a line: Vero E6 cell viability by MTS (Zika study). Type of series: cell-based. Conditions: African green monkey, Vero E6 cells. The protocol:
as §3
(§4) Their cytotoxic effects were also determined by the MTS assay described above using Vero E6 cells.

Series [6] relates to HCoV-OC43. In words: HCoV-OC43 IFA assay (N protein) in HCT-8 cells. The format is cell-based.
Series [7] has as its system SARS-CoV-2. In words: SARS-CoV-2 immunofluorescence assay (IFA), N protein expression in Vero E6 cells. The format is cell-based. The procedure:
Vero E6 cells derived from BCRC #60476 (Bioresource Collection and Research Center, Hsinchu, Taiwan) were treated with each compound at an indicated concentration for 1 hour at 37° C. The cells were adsorbed with SARS-CoV-2 viruses (TCDC #4, National Taiwan University, Taipei, Taiwan, ROC) at multiplicity of infection (“MOI”) of 0.01 for 1 hour at 37° C. After virus adsorption, the cells were washed with phosphate-buffered saline (“PBS”). A fresh medium containing the compound was added at an indicated concentration. The resultant mixture was incubated for 2 days. The cells were fixed with 4% paraformaldehyde and permeabilized with a 0.5% Triton™ X-100 detergent solution (Thermo Fisher Scientific, Waltham, MA). Subsequently, they were stained with an anti-SARS-CoV-2 N protein antibody and anti-human IgG-488 (in green). The nuclei of the cells were counter stained with 4′,6-diamidino-2-phenylindole (“DAPI”, Thermo Fisher Scientific, MA, USA). The N protein expression was measured using a high-content image analysis system (Molecular Devices, San Jose, CA). The cell viability was determined by Cell Counting Kit-8 (Sigma-Aldrich, St. Louis, MO) EC50 and CC50 values were calculated by Prism software. […] Both EC50 and CC50 are measured in molar units, e.g., mol/L (“M”), μmol/L (“μM”), and nmol/L (“nM”).

Series [8] has as its system HCoV-229E. In words: HCoV-229E cytopathic effect / end point assay by TCID50 with crystal violet in MRC5 cells. Conditions: Human coronavirus 229E, MRC5, read-out: EC50 (HCoV-229E). (Damage to the host cells serves as the signal in cytopathic effect assays.)
Experimental: An end point assay by TCID50 was performed. Crystal violet was used to stain live cells to determine the EC50 of each compound. Further, CC50 and selective index were calculated.
A short description of series [9]: HCT-8 cell viability (MTS). Particulars: human, HCT-8 cells.
In series [10] the test system is SARS-CoV-2. In words: SARS-CoV-2 cytopathic effect (CPE) by visualization in infected Vero E6 cells. Conditions: Severe acute respiratory syndrome coronavirus 2, Vero C1008, read-out: SARS-CoV-2 inhibition EC50, CPE. Type of series: cell-based. The procedure: Compounds 1-3 were examined for their inhibitory activity against SARS-CoV-2 in Vero E6 cells. Cytopathic effects (“CPE”) of SARS-CoV-2 infected Vero E6 cells, with treatment of compounds in 2-fold dilution at a series of 12 concentrations, were visualized. EC50 and CC50 values were calculated.

In series [11] the test system is SARS-CoV-2. In words: SARS-CoV-2 plaque assay in Vero E6 cells. The format is cell-based. Particulars: Severe acute respiratory syndrome coronavirus 2, Vero C1008. The protocol: The assay was performed in triplicate in 24-well tissue culture plates. Vero E6 cells were seeded in Dulbecco's modified Eagle's medium (“DMEM”) with 10% Fetal Bovine Serum (“FBS”, Biological Industries, Kibbutz, Israel) and antibiotics one day before infection. SARS-CoV-2 viruses were added to the cell monolayer and allowed to sit for 1 hour at 37° C. After viruses were removed, the cell monolayer was washed once with PBS before covering with media containing agarose or methylcellulose for 5-7 days. The cells were fixed with 3.7% formaldehyde overnight followed by removal of overlay media. They were then stained with crystal violet to count the plaque-forming units (“PFU”). The percentage of inhibition was calculated as [1−(VD/VC)]×100%, where VD and VC refer to the virus titer in the presence and absence of a test compound, respectively.

The subject of series [12] is Vero E6 cells. In words: Vero E6 cell viability by MTS (Dengue study). The format is cell-based. The procedure: as §2
For series [13], the system named is Vero E6 cells. In words: Vero E6 cell viability by MTS (Zika study). The format is cell-based. The protocol:
as §3, §4

The mark [14] stands for this setting: Dengue virus, Vero C1008, 120 h.
Where [15] appears, read: Zika virus, Vero C1008, 49 h, Vero E6 cells, MOI 0.02, 49 hours.
The mark [16] stands for this setting: Severe acute respiratory syndrome coronavirus 2, Vero C1008, 48 h, Vero E6 cells, MOI 0.01, 2 days, run 1, read-out: SARS-CoV-2 inhibition EC50, IFA-1.
The mark [17] stands for this setting: Severe acute respiratory syndrome coronavirus 2, Vero C1008, 48 h, Vero E6 cells, MOI 0.01, 2 days, run 2, read-out: SARS-CoV-2 inhibition EC50, IFA-2.
Setting [18] is: Severe acute respiratory syndrome coronavirus 2, Vero C1008, IFA, range over Compounds 1, 2 and 3, read-out: EC50 against SARS-CoV-2 (range given).
Where [19] appears, read: Betacoronavirus 1, OC43, HCT-8 cells, MOI 0.05, means ± S.D. from three independent experiments, read-out: EC50 (HCoV-OC43).
[20] abbreviates: Vero E6 cells, MOI 0.02, 49 hours.

The values that follow come from patent publication US20240033256A1, “INHIBITORS OF POSITIVE STRAND RNA VIRUSES” (priority 2020, published 2024).

What is called EC50 is the concentration at which the effect is half-maximal. A word on the CC50: it is the concentration giving 50% cytotoxicity. A lower CC50 goes with greater toxicity to the cells.

Like-named read-outs stand apart in the source and are kept apart here.

Turning to `CCCN1Cc2c(c3cc(OC)c(OC)cc3c3cc(OC)c(OC)cc23)C(O)C1` (stereo not drawn) [Compound 8], the results for the EC50 in [1] (setting [14]), in series [2] (setting [15]) and in series [4] (setting [14]) were 0.247 µM, 0.304 µM and 0.617 µM, respectively. For the same compound, the CC50 in series [3] and in [5] was above 5 µM each time.
Consider `COc1cc2c3c(c4cc(OC)c(OC)cc4c2cc1OC)CN1CCC[C@H]1C3` [Compound 1, (13as)-2,3,6,7-tetramethoxy-9,11,12,13,13a,14-hexahydrophenanthro[9,10-f] indolizine], for which the EC50 in series [6] (Betacoronavirus 1, OC43, HCT-8, read-out: EC50 (HCoV-OC43)) is 0.068 ± 0.0027 µM; in series [7] (setting [16]) it was 0.064 µM; in series [7] (setting [17]), 0.0768 µM; in series [7] (setting [18]) it was 0.009 to 0.077 µM; in [8] it was 0.0714 ± 0.0132 µM; in [1] (setting [14]), 0.0184 µM. The EC50 in series [2] (Zika virus, Vero C1008, 49 h) was found to be 0.0614 µM; in series [4] (setting [14]) it was 0.0325 µM; in series [10], 0.078 µM. For the same compound, the values for the CC50 in series [3], in [9] and in series [5] were above 5 µM, above 10 µM and above 5 µM, respectively.
On to `COc1cc2c3c(c4cc(OC)c(OC)cc4c2cc1OC)CN1CCCCC1C3` (stereo not drawn) [Compound 4], for which the 50% effective concentration (EC50) in [6] (setting [19]) is 0.0517 ± 0.0061 µM; in [1] (setting [14]) it was 0.0076 µM; in series [2] (setting [15]), 0.0133 µM; in [4] (setting [14]) it was 0.0083 µM. Also, the CC50 was above 5 µM in series [3], above 10 µM in [9] and above 5 µM in series [5].
`COc1cc2c3c(c4cc(OC)c(OC)cc4c2cc1OC)C[N+]1([O-])CCCC1C3` (stereo not drawn) [Compound 6]: the EC50 amounted to 1.89 ± 0.228 µM in series [6] (setting [19]), 1.64 µM in series [1] (setting [14]), 1.04 µM in series [2] (setting [15]) and 2.64 µM in series [4] (setting [14]). In addition, the “Selectivity index (HCoV-OC43)” value in series [6] (CC50/EC50, HCT-8 cells) is listed as above 5.3. The figures for the CC50 in [3], in series [9] and in series [5] were above 5 µM, above 10 µM and above 5 µM, respectively.
On to `CCN1Cc2c(c3cc(OC)c(OC)cc3c3cc(OC)c(OC)cc23)C(O)C1` (single isomer, unassigned) [Compound 7], for which the EC50 in series [1] amounted to 0.0731 µM; in series [2] (setting [20]), 0.0444 µM; in series [4], 0.124 µM. Moreover, the CC50 in series [3] and in series [5] was above 5 µM throughout.
In the case of `CCN1CCc2c(c3cc(OC)c(OC)cc3c3cc(OC)ccc23)C1` [Compound 5], the EC50 in [1] (setting [14]) turned out to be 0.131 µM; in series [2] (setting [15]), 0.156 µM; in [4] (setting [14]), 0.286 µM. Also, the CC50 in series [3] was above 5 µM; in series [9], above 10 µM; in [5] it was above 5 µM.
Take `CCN1Cc2c(c3ccc(OC)cc3c3cc(OC)c(OC)cc23)C(O)C1C` (stereo not drawn) [Compound 3]: the EC50 in series [6] (setting [19]) is 0.0559 ± 0.0062 µM; in series [7] (setting [16]), 0.0316 µM; in [7] (setting [17]), 0.0319 µM; in series [7] (setting [18]), 0.009 to 0.077 µM; in series [8], 0.0254 ± 0.0031 µM; in series [1] (setting [14]), 0.0196 µM. Moreover, the values for the EC50 in series [2] (setting [15]), in [4] (setting [14]) and in [10] were 0.0159 µM, 0.029 µM and 0.02 µM, respectively. Also, the 50% cytotoxic concentration (CC50) in series [3] is above 5 µM; in [9] it was above 10 µM; in series [5], above 5 µM.
On to `CCN1Cc2c(c3ccc(OC)cc3c3cc(OC)c(OC)cc23)C(O)C1` (stereo not drawn) [Compound 2], for which the EC50 in series [6] (setting [19]) was 0.0164 ± 0.0047 µM; in [7] (setting [16]) it was 0.0091 µM; in series [7] (setting [17]), 0.0139 µM; in series [7] (setting [18]), 0.009 to 0.077 µM; in series [8], 0.0065 ± 0.001 µM; in series [1] (setting [14]) it was 0.0043 µM. In addition, the EC50 in series [2] (setting [15]) is 0.0153 µM; in series [11] (Vero E6 cells, run 1, read-out: SARS-CoV-2 inhibition EC50, Plaque assay-1), 0.0108 µM; in series [11] (Vero E6 cells, run 2, read-out: SARS-CoV-2 inhibition EC50, Plaque assay-2) it was 0.0138 µM; in series [11] (infected Vero E6 cells, four measurements, read-out: EC50 against SARS-CoV-2, plaque assay, all four measurements) it was 0.011 to 0.014 µM; in series [4] (setting [14]) it was 0.0047 µM; in series [10], 0.0025 µM. Further, the figures for the CC50 in series [3], in [9] and in series [5] were above 5 µM, above 10 µM and above 5 µM, respectively.
As for `CCN1Cc2c(c3cc(OC)c(OC)cc3c3cc(OC)c(OC)cc23)C(O)C1` (single isomer, unassigned) [Compound 9], the figures for the EC50 in series [1], in series [2] (setting [20]) and in series [4] were 0.296 µM, 0.144 µM and 0.616 µM, respectively. For the same compound, the CC50 in [12] and in series [13] was above 5 µM throughout.
